The source of these data is patent US10865196B2, “Compounds for treatment of cancer” (University of Tennessee Research Foundation, priority 2008, dated 2020).

Like-named read-outs stand apart in the source and are kept apart here. Some results are limits rather than exact numbers.

One data set concerns OVCAR-8. The experiment in a line: SRB antiproliferation assay, OVCAR-8 ovarian cancer. As to conditions: Homo sapiens, OVCAR-8, read-out: IC50 OVCAR-8. A general note: The SRB assay estimates cell density from bound dye.
A further data set has as its system NCI/ADR-RES. Nature of the data set: SRB antiproliferation assay, P-gp over-expressing NCI/ADR-RES.
Data set [1] has as its system prostate cancer cells (LNCaP, PC-3, DU-145, PPC-1). The experiment in a line: SRB assay, prostate cancer cells. The format is cell-based, human.
The test system of the next data set is DU 145. Nature of the data set: SRB antiproliferation assay, DU 145 prostate cancer. As to conditions: read-out: IC50 DU 145, SRB.
For a further data set, the system named is B16-F1. The experiment in a line: SRB antiproliferation assay, B16-F1 melanoma. The format is cell-based, mouse. The conditions noted are these: read-out: IC50 B16-F1 (converted). An excerpt:
(§1) For melanoma assays, one human melanoma cell line (A375) and one mouse melanoma cell line (B16-F1) were used. […] Fibroblast cells were used as a control to determine the selectivity of these compounds against melanoma. Human dermal fibroblast cells were purchased from Cascade Biologics, Inc., Portland, Oreg., USA.

For the next data set, the system named is PPC-1. Nature of the data set: SRB antiproliferation assay, PPC-1 prostate cancer. As to conditions: read-out: IC50 PPC-1, SRB.
In the next data set the test system is A375. Nature of the data set: SRB antiproliferation assay, A375 melanoma. The format is cell-based, human. The conditions noted are these: read-out: IC50 A375 (converted).
Text: as §1

In a further data set the test system is LNCaP. The experiment in a line: SRB antiproliferation assay, LNCaP prostate cancer. The conditions noted are these: read-out: IC50 LNCaP, SRB.
In a further data set the test system is PC-3. The experiment in a line: SRB antiproliferation assay, PC-3 prostate cancer. As to conditions: read-out: IC50 PC-3, SRB.
The subject of data set [2] is melanoma (A375, B16-F1) and prostate cancer cells (DU145, PC-3, LNCaP, PPC-1). Nature of the data set: SRB assay, range over melanoma and prostate cancer cell lines. It is filed as cell-based. The conditions noted are these: for IC50: range over the examined cell lines, read-out: IC50 over melanoma and prostate cancer cell lines. The protocol: (§2) For melanoma assays, one human melanoma cell line (A375) and one mouse melanoma cell line (B16-F1) were used. […] Fibroblast cells were used as a control to determine the selectivity of these compounds against melanoma. Human dermal fibroblast cells were purchased from Cascade Biologics, Inc., Portland, Oreg., USA. […] Cells were exposed to a wide range of concentrations for 48 h in round-bottomed 96-well plates. […] After cells were air-dried overnight and stained with SRB solution, total proteins were measured at 560 nm with a plate reader.

The subject of a further data set is WM164. The experiment in a line: SRB antiproliferation assay, WM-164 melanoma. It is filed as cell-based. The conditions noted are these: Homo sapiens.
The subject of data set [3] is Human dermal fibroblast cells. Nature of the data set: SRB assay, fibroblast control cells. It is filed as cell-based. As to the method: as §2

As to `COc1cc(C(=O)c2cccc(-c3ccccc3)n2)cc(OC)c1OC`, the IC50 turned out to be 33 ± 3 nM in the data set on OVCAR-8 and 13 ± 0.8 nM in the data set on NCI/ADR-RES (Homo sapiens, NCI/ADR-RES, read-out: IC50 NCI/ADR-RES).
`COc1cc(C(=NC#N)c2csc(-c3ccccc3)n2)cc(OC)c1OC` returned a Resistance factor in the data set on NCI/ADR-RES (NCI/ADR-RES vs OVCAR-8) of 0.4.
Regarding `COc1cc(C(=O)c2csc(-c3ccc(CN)cc3)n2)cc(OC)c1OC`, in the data set with OVCAR-8, the IC50 was determined as 26 ± 2 nM.
In the case of `COc1cc(C(=O)c2csc(Nc3ccccc3)n2)cc(OC)c1OC` [5-a], in [1], the “activity in prostate cancer cell lines, in words” value is “potent activity”.
Same read-out and setting: as for `COc1cc(C(=O)c2csc(Nc3ccc(F)cc3)n2)cc(OC)c1OC` [5-c], the entry is “potent activity”.
For the molecule `COc1cc(C(=O)c2csc(Nc3ccc(Cl)cc3)n2)cc(OC)c1OC` [5-d], the “activity in prostate cancer cell lines, in words” value in data set [1] is “potent activity”.
Consider `COc1ccc(-c2nc(C(=O)c3cc(OC)c(OC)c(OC)c3)cs2)cc1OC` [8o, [2-(3,4-Dimethoxyphenyl)-thiazol-4-yl]-(3,4,5-trimethoxyphenyl)-methanone], for which the IC50 is 102 nM in the data set on DU 145; 161 nM with B16-F1 (Mus musculus, B16-F1, SRB); 56 nM in the data set with PPC-1; 34 nM in the data set with A375 (Homo sapiens, A-375, SRB); 38 nM in the data set on LNCaP; 69 nM in the data set on PC-3.
In the case of `COc1cc(C(=O)c2csc(-c3ccc([N+](=O)[O-])cc3)n2)cc(OC)c1OC` [8p, [2-(4-Nitrophenyl)-thiazol-4-yl]-(3,4,5-trimethoxyphenyl)-methanone], the IC50 with DU 145 is 95 nM; in the data set with B16-F1 (Mus musculus, B16-F1, SRB), 56 nM; in the data set with PPC-1, 34 nM; in the data set on A375 (Homo sapiens, A-375, SRB), 38 nM; with LNCaP it was 39 nM; in the data set on PC-3, 56 nM.
Turning to `COc1cc(C(=O)c2csc(-c3ccc(C#N)cc3)n2)cc(OC)c1OC` [8q, 4-[4-(3,4,5-Trimethoxybenzoyl)-thiazol-2-yl]-benzonitrile], the IC50 was 52 nM in the data set with DU 145; 53 nM in the data set with B16-F1 (Mus musculus, B16-F1, SRB); 19 nM in the data set on PPC-1; 59 nM with A375 (Homo sapiens, A-375, SRB); 15 nM in the data set on LNCaP; 30 nM with PC-3.
For the molecule `COc1cc(C(=O)c2csc(-c3ccc(C(F)(F)F)cc3)n2)cc(OC)c1OC` [8t, (2-(4-(Trifluoromethyl)-phenyl)-thiazol-4-yl)(3,4,5-trimethoxyphenyl)-methanone], the IC50 was 50 nM in the data set on DU 145; 92 nM with B16-F1 (Mus musculus, B16-F1, SRB); 76 nM with PPC-1; 23 nM in the data set on A375 (Homo sapiens, A-375, SRB); 94 nM in the data set with LNCaP; 58 nM with PC-3.
`COc1cc(C(=O)c2csc(-c3ccc(Br)cc3)n2)cc(OC)c1OC` [8u, [2-(4-Bromophenyl)-thiazol-4-yl]-(3,4,5-trimethoxyphenyl)-methanone]: the IC50 was 21 nM with DU 145; 18 to 44 nM in data set [1] (Homo sapiens, range over prostate cancer cell lines, read-out: IC50 values against prostate cancer cells); 32 nM in the data set with B16-F1 (Mus musculus, B16-F1, SRB); 21 nM in the data set with PPC-1; 13 nM with A375 (Homo sapiens, A-375, SRB); 44 nM in the data set on LNCaP. Also, the IC50 in the data set on PC-3 was 18 nM.
In the case of `CCc1ccc(-c2nc(C(=O)c3cc(OC)c(OC)c(OC)c3)cs2)cc1` [8v, [2-(4-Ethyl-phenyl)-thiazol-4-yl]-(3,4,5-trimethoxy-phenyl)-methanone], the IC50 was 31 nM in the data set on DU 145; 17 to 70 nM in data set [2]; 70 nM in the data set on B16-F1 (Mus musculus, B16-F1, SRB); 22 nM with PPC-1; 60 nM with LNCaP; 27 nM in the data set on PC-3.
For the molecule `COc1cc(C(=O)c2csc(-c3ccncc3)n2)cc(OC)c1OC` [8x, [2-(Pyridin-4-yl)-thiazol-4-yl]-(3,4,5-trimethoxyphenyl)-methanone], the melting point was in the range of 178 to 180 °C. Moreover, the IC50 in the data set with DU 145 is above 20000 nM. Also, the IC50 in the data set on B16-F1 (Mus musculus, B16-F1, SRB) is above 100000 nM. Further, the IC50 with PPC-1 was above 20000 nM. For the same molecule, the IC50 with A375 (Homo sapiens, A-375, SRB) is above 100000 nM. For the same molecule, the IC50 with LNCaP is above 20000 nM. In addition, in the data set with PC-3, the IC50 is above 20000 nM.
Molecule `COc1cc(C(=O)c2csc(-c3ncccn3)n2)cc(OC)c1OC` [8y, [2-(Pyrimidin-2-yl)-thiazol-4-yl]-(3,4,5-trimethoxyphenyl)-methanone] displayed a melting point of 190 to 191 °C. In addition, the IC50 in the data set with DU 145 was 2810 nM. The IC50 in data set [2] is 11800 to 41000 nM. Also, the IC50 with B16-F1 (Mus musculus, B16-F1, SRB) was 2300 nM. Moreover, in the data set with PPC-1, the IC50 is 1190 nM. For the same molecule, in the data set on A375 (Homo sapiens, A-375, SRB), the IC50 was 4100 nM. Further, in the data set with LNCaP, the IC50 was 2370 nM. Moreover, the IC50 with PC-3 was 2660 nM.
Regarding `Cc1ccc(-c2nc(C(=O)c3ccc(F)cc3)cs2)cc1` [11-11], the IC50 was 4900 nM in the data set on B16-F1 (Mus musculus, B16-F1, SRB); 4700 nM with WM164; 3470 nM in the data set on A375 (Homo sapiens, A-375, SRB).
With `O=C(c1ccc(OC(F)(F)F)cc1)c1csc(-c2ccccc2)n1` [13-13], the IC50 was above 10000 nM in the data set on B16-F1 (Mus musculus, B16-F1, SRB); above 10000 nM with WM164; above 10000 nM in the data set on A375 (Homo sapiens, A-375, SRB).
For `CCc1cc(C(=O)c2csc(-c3ccccc3)n2)cc(OC(F)(F)F)c1OC(=O)CCl` [18-18], the IC50 with DU 145, in the data set on PPC-1, in the data set with LNCaP and in the data set on PC-3 was around 10000 nM each time.
Turning to `COc1ccc(C(=O)n2ccnc2-c2ccc(F)cc2)cc1` [24-24], the IC50 in the data set on B16-F1 (Mus musculus, B16-F1, SRB) is above 10000 nM; in the data set on WM164, above 10000 nM; in the data set on A375 (Homo sapiens, A-375, SRB), above 10000 nM.
Regarding `CCCCCCCCCCCCCCCCNC(=O)[C@@H]1CSC(c2ccc(NC(C)=O)cc2)N1` (stereo partly shown) [ATCAA-1, reference compound], the IC50 in the data set on DU 145 (96 h) is 1700 ± 100 nM; in [2], 400 to 2200 nM; with B16-F1 (SRB, 48 h), 2200 ± 300 nM; in the data set on PPC-1 (96 h) it was 400 ± 100 nM; with A375 (SRB, 48 h), 2100 ± 200 nM; in the data set on LNCaP (96 h) it was 1000 ± 100 nM.
For `CC(=O)Nc1ccc(C2N[C@H](C(=O)Nc3ccc4c(c3)Cc3ccccc3-4)CS2)cc1` (stereo partly shown) [ATCAA-2, reference compound], the IC50 in the data set with DU 145 (96 h) is 1900 ± 300 nM; in [2], 1600 to 3900 nM; with PPC-1 (96 h), 1600 ± 100 nM; with A375 (SRB, 48 h), 2100 ± 100 nM; in the data set on LNCaP (96 h), 3500 ± 700 nM; in the data set on PC-3 (96 h), 2100 ± 100 nM.
For the molecule `COc1cc(C(=O)c2cscn2)cc(OC)c1OC` [compound 10, Thiazol-4-yl-(3,4,5-trimethoxy-phenyl)-methanone], the melting point was in the range of 106 to 108 °C. In the data set with DU 145, the IC50 is above 20000 nM. Moreover, the “antiproliferative activity against melanoma and prostate cancer cell lines, in words” value in [2] (compared with 8f or parent compounds) is reported as “total loss of activity”. Moreover, the IC50 in the data set with B16-F1 (Mus musculus, B16-F1, SRB) was above 100000 nM. In addition, in the data set on PPC-1, the IC50 was above 20000 nM. In addition, in the data set with A375 (Homo sapiens, A-375, SRB), the IC50 was above 100000 nM. Also, in the data set on LNCaP, the IC50 is above 20000 nM. Also, the IC50 in the data set on PC-3 is above 20000 nM.
For the molecule `COc1cc(/C(=N/O)c2csc(-c3ccccc3)n2)cc(OC)c1OC` [compound 33, (Z)-(2-Phenylthiazol-4-yl)(3,4,5-trimethoxyphenyl)methanone oxime], the melting point lay within 150 to 153 °C. The molecule also displayed an IC50 in data set [3] of 360 nM. Further, the IC50 in the data set on B16-F1 (Mus musculus, B16-F1, 48 h, SRB, 48 h) was 320 nM. Besides, the IC50 in the data set on A375 (Homo sapiens, A-375, 48 h, SRB, 48 h) was 180 nM.
In turn, `COc1cc(/C(=N\O)c2csc(-c3ccccc3)n2)cc(OC)c1OC` [compound 34, (E)-(2-Phenylthiazol-4-yl)(3,4,5-trimethoxyphenyl)methanone oxime] gave a melting point of 176 to 177 °C. In addition, the IC50 with DU 145 (96 h) was above 1000 nM. The molecule further displayed an IC50 in data set [3] of 10100 nM. The IC50 in the data set with PPC-1 (96 h) is above 1000 nM. Moreover, the IC50 in the data set with LNCaP (96 h) was above 1000 nM. The IC50 in the data set on PC-3 (96 h) is above 1000 nM.
Molecule `COc1cc(/C(=N/N)c2csc(-c3ccccc3)n2)cc(OC)c1OC` [compound 35, (Z)-4-(Hydrazono(3,4,5-trimethoxyphenyl)methyl)-2-phenylthiazole] had a melting point of 117 to 119 °C. Further, the IC50 in data set [3] amounted to 1900 nM.
Molecule `COc1cc(/C(=N\N)c2csc(-c3ccccc3)n2)cc(OC)c1OC` [compound 36, (E)-4-(Hydrazono(3,4,5-trimethoxyphenyl)methyl)-2-phenylthiazole] returned a melting point of 65 to 66 °C. The molecule also showed an IC50 in data set [3] of 1000 nM.

One may read the melting point as the temperature of the solid-liquid transition.
